Experimental data as given in ChEMBL document CHEMBL4184107, “Structure based design of nicotinamide phosphoribosyltransferase (NAMPT) inhibitors from a phenotypic screen” (Bioorg Med Chem Lett, 2018).

Assays:
[1] = Permeability of the compound by PAMPA; type: ADME
[2] = Clearance in mouse liver microsomes; type: ADME, microsome; conditions: read-out: CLH
[3] = Half life in nude mouse at 1 mg/kg, iv by HPLC-MS/MS analysis; type: ADME, organism-based; conditions: in vivo
[4] = Clearance in nude mouse at 1 mg/kg, iv by HPLC-MS/MS analysis; type: ADME, organism-based; conditions: in vivo
[5] = Volume of distribution at steady state in nude mouse at 1 mg/kg, iv by HPLC-MS/MS analysis; type: ADME, organism-based; conditions: in vivo, read-out: Vdss
[6] = Cmax in nude mouse at 10 mg/kg, po by HPLC-MS/MS analysis; type: ADME, organism-based; design: dose 10 mg/kg, route oral; conditions: in vivo
[7] = Tmax in nude mouse at 10 mg/kg, po by HPLC-MS/MS analysis; type: ADME, organism-based; conditions: in vivo
[8] = Oral bioavailability in nude mouse at 10 mg/kg by HPLC-MS/MS analysis; type: ADME, organism-based; conditions: in vivo
[9] = AUC in nude mouse at 1 mg/kg, iv by HPLC-MS/MS analysis; type: ADME, organism-based; conditions: in vivo
[10] = AUC in nude mouse at 10 mg/kg, po by HPLC-MS/MS analysis; type: ADME, organism-based; conditions: in vivo
[11] = Half life in mouse microsomes; type: ADME, Microsome
[12] = AUC in nude mouse at 15 mg/kg, po by HPLC-MS/MS analysis; type: ADME, organism-based; conditions: in vivo
[13] = Cmax in nude mouse at 15 mg/kg, po by HPLC-MS/MS analysis; type: ADME, organism-based; design: dose 15 mg/kg, route oral; conditions: in vivo
[14] = Tmax in nude mouse at 15 mg/kg, po by HPLC-MS/MS analysis; type: ADME, organism-based; conditions: in vivo

permeability [1]	microsomal CLint [2]	other results	SMILES
Impermeable	25.1 µL/min/mg	–	C[C@H](NC(=O)C1CCOCC1)c1ccc(NC(=O)[C@H]2C[C@@H]2c2cccnc2)cc1
Permeable	< 3.42 µL/min/mg	–	C[C@H](NC(=O)c1ccccn1)c1ccc(NC(=O)[C@H]2C[C@@H]2c2cccnc2)cc1
Permeable	13.7 µL/min/mg	–	C[C@H](NC(=O)c1ccc(F)cc1)c1ccc(NC(=O)[C@H]2C[C@@H]2c2cccnc2)cc1
Permeable	65.4 µL/min/mg	–	C[C@H](NC(=O)[C@@H]1CCCN1C)c1ccc(NC(=O)[C@H]2C[C@@H]2c2cccnc2)cc1
Permeable	148 µL/min/mg	half-life [3]: 1.5 h; clearance [4]: 0.408 L/h/kg; Vd [5]: 0.5 L/kg; Cmax [6]: 12.7 µM; Tmax [7]: 0.5 h; bioavailability [8]: 31%; AUC [9]: 6.18 µM·h; AUC [10]: 19.2 µM·h	C[C@H](NC(=O)c1ccccc1)c1ccc(NC(=O)[C@H]2C[C@@H]2c2cccnc2)cc1
Impermeable	43.2 µL/min/mg	–	COCC(=O)N[C@@H](C)c1ccc(NC(=O)[C@H]2C[C@@H]2c2cccnc2)cc1
Impermeable	53 µL/min/mg	–	C[C@H](NC(=O)c1ccc(C#N)cc1)c1ccc(NC(=O)[C@H]2C[C@@H]2c2cccnc2)cc1
Impermeable	–	half-life [11]: 7.67 h	C[C@H](NC(=O)c1ccc(CN2CCOCC2)cc1)c1ccc(NC(=O)[C@H]2C[C@@H]2c2cccnc2)cc1
Permeable	38.4 µL/min/mg	–	C[C@H](NC(=O)c1ncccn1)c1ccc(NC(=O)[C@H]2C[C@@H]2c2cccnc2)cc1
Impermeable	–	half-life [11]: 35 h	CCC(=O)N[C@@H](C)c1ccc(NC(=O)[C@H]2C[C@@H]2c2cccnc2)cc1
Impermeable	83.7 µL/min/mg	–	C[C@H](NC(=O)CC(F)(F)F)c1ccc(NC(=O)[C@H]2C[C@@H]2c2cccnc2)cc1
–	–	AUC [12]: 9.2 µM·h; Cmax [13]: 2.07 µM; Tmax [14]: 1 h	O=C(NCc1ccc(S(=O)(=O)c2cccc(Cl)c2)cc1)c1cc2cnccc2[nH]1
